# Experimental data as given in the supplement of paper PMC12463676, “Small-molecule dissolution of stress granules by redox modulation benefits ALS models” (Nature Chemical Biology, 2025).
# Compound: NC(=O)CCCCC1CCSS1 [lipoamide]
# Test: thermal stability z-score vs DMSO; higher = more thermally stabilized by treatment
# Settings: HeLa; lipoamide concentration 100 µM; arsenate co-treatment: none
# Procedure: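 Cellular thermal proteome profiling in HeLa cells. Cells were treated with 100 µM lipoamide for 1 h, with or without 1 mM arsenate for a further 1 h, then heated to ten temperatures (37-66.3 °C), and soluble protein was quantified by TMT mass spectrometry relative to 0.1% DMSO controls. The thermal stability score (sum of log2 fold changes minus the abundance score) was transformed to a z-score; mean of n = 3 experiments.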
# 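Note: each temperature applied for 3 min, abundance score taken as mean log2 fold change at the two lowest temperatures, z-score obtained by mean subtraction and division by SD.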
# UniProt Q8NHP8, sequence (Q8NHP8 whole entry): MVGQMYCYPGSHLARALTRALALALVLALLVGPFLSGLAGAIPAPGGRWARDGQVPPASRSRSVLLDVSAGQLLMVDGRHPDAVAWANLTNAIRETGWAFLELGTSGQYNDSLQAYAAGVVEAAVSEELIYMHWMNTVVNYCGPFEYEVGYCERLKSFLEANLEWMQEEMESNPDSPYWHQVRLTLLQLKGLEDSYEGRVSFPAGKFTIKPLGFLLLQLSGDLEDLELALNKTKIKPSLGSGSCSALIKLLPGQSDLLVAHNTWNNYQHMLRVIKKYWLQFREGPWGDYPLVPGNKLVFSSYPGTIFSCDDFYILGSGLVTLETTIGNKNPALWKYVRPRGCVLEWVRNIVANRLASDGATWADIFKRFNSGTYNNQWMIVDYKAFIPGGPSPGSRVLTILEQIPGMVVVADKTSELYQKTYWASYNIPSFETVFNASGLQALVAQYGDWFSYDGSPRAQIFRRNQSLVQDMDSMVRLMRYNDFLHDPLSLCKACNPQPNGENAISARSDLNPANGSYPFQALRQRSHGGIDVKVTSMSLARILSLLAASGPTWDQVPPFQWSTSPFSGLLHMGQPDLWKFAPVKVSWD
# UniProt Q6NUM9, sequence (Q6NUM9 whole entry): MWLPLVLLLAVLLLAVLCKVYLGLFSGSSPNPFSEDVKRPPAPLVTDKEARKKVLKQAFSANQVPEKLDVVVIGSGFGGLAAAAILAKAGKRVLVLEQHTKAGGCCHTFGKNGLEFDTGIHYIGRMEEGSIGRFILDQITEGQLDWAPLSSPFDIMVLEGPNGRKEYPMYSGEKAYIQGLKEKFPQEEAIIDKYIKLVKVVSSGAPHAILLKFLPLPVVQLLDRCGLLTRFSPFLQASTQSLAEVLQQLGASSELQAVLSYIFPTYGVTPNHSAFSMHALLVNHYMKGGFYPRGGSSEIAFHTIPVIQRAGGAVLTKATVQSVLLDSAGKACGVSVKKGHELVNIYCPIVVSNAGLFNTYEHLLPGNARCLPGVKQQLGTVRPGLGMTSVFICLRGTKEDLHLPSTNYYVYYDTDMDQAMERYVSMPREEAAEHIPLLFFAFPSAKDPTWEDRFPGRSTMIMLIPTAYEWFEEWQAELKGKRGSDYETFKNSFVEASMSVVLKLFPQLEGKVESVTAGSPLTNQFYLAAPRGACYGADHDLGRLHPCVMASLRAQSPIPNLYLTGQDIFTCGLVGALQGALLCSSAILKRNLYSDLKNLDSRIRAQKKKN
# UniProt Q6I9Y2, sequence (Q6I9Y2 whole entry): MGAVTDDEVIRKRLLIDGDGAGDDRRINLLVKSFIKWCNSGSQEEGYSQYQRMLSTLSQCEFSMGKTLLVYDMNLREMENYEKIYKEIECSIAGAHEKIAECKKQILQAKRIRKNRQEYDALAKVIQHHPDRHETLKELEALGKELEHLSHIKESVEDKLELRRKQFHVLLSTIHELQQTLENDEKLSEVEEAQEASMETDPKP
# UniProt Q15165, sequence (Q15165 whole entry): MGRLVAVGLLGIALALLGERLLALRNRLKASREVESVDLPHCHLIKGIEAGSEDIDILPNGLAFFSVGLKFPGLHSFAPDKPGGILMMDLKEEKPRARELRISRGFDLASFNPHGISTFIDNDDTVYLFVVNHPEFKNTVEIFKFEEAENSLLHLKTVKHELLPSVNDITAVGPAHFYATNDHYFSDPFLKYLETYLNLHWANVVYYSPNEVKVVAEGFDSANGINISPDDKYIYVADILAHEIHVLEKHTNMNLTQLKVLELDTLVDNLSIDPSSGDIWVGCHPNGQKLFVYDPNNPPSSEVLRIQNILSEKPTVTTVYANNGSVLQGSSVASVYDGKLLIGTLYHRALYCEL
# UniProt Q53H47, sequence (Q53H47 whole entry): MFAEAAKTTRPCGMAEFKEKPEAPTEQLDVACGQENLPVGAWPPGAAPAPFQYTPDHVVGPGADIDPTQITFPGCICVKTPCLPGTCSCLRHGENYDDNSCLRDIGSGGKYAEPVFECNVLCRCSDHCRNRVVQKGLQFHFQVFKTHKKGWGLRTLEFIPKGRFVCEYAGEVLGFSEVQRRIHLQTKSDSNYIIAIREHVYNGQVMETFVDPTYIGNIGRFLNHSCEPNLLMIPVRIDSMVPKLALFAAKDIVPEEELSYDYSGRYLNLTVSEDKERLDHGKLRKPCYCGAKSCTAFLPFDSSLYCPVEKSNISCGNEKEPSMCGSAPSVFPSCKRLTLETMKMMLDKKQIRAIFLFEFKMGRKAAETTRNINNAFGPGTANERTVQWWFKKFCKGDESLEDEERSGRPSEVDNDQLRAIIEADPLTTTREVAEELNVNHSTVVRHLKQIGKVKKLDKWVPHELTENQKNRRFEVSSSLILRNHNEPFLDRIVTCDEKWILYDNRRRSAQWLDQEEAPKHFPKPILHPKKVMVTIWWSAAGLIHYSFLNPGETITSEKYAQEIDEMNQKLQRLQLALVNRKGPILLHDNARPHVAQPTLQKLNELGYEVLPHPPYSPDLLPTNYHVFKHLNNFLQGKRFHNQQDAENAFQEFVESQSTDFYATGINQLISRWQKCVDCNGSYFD
# UniProt Q9H1C3, sequence (Q9H1C3 whole entry): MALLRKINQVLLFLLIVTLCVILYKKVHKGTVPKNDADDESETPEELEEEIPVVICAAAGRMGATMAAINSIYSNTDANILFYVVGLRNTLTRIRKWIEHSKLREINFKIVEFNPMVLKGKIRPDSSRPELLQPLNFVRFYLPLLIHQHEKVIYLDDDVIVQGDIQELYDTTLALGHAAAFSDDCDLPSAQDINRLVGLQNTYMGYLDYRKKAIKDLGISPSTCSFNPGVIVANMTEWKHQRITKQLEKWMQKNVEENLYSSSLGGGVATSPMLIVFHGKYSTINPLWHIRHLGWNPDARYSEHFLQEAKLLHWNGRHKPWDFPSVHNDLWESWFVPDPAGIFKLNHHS
# UniProt P02686, sequence (P02686 whole entry): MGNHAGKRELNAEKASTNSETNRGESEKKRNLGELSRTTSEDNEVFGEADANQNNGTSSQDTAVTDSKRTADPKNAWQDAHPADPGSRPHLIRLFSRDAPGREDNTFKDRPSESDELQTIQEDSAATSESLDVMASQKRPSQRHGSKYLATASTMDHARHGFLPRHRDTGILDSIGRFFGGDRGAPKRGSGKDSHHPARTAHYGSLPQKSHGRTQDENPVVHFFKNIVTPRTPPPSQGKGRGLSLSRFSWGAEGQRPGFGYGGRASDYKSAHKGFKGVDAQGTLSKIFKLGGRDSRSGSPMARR
# UniProt Q9UKV5, sequence (Q9UKV5 whole entry): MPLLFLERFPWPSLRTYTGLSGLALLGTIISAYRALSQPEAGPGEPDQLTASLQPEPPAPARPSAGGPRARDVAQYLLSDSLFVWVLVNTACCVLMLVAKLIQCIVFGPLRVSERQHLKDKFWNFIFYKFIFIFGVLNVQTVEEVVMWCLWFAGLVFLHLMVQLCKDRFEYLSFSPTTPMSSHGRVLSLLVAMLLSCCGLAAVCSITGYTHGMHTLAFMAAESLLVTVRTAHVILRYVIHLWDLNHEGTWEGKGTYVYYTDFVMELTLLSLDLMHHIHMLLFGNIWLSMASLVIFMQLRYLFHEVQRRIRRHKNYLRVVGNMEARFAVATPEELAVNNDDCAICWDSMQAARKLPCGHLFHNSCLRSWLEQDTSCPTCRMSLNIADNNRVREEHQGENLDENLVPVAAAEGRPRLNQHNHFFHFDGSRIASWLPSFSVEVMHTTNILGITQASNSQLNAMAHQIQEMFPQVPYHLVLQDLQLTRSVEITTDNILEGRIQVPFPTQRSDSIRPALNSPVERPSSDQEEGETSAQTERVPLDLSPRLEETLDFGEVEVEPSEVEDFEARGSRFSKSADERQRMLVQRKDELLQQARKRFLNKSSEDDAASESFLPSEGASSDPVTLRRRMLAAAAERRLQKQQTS
# UniProt Q96RT8, sequence (Q96RT8 whole entry): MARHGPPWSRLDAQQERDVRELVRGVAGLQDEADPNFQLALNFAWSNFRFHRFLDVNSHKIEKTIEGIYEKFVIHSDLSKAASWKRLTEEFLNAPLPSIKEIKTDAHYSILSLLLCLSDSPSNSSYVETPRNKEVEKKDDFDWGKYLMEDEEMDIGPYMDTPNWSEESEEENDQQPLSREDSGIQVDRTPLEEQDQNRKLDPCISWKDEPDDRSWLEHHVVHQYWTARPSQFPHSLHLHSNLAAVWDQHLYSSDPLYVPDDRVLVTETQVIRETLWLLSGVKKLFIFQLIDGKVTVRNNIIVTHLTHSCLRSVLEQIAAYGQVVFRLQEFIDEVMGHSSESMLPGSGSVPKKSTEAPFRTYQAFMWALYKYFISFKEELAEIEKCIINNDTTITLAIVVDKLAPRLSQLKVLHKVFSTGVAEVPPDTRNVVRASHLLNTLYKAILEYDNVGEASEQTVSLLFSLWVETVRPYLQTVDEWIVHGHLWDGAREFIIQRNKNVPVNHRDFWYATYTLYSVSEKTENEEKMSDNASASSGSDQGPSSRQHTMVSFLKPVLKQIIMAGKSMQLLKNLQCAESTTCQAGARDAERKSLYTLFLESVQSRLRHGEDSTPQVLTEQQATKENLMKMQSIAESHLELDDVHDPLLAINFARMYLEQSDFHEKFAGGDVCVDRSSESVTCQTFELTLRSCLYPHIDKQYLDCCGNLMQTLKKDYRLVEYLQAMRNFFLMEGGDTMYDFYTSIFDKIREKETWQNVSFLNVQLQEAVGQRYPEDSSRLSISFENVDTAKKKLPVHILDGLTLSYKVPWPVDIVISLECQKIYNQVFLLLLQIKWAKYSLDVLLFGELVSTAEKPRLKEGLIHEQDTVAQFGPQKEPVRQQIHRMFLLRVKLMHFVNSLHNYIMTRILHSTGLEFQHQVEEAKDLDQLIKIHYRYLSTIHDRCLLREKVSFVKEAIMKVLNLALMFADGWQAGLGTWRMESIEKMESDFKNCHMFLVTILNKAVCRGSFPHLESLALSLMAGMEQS
# UniProt P23528, sequence (P23528 whole entry): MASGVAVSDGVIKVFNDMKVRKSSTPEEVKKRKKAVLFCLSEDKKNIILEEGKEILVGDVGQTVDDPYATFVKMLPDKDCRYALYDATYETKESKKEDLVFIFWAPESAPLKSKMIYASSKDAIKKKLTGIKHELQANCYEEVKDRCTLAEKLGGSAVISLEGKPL
row,Target,thermal stability z-score
1,NF1 (UniProt P21359),-0.235
2,MBP (UniProt P02686),0.197
3,OSBPL2 (UniProt Q9H1P3),0.0817
4,FAM162A (UniProt Q96A26),0.302
5,RETSAT (UniProt Q6NUM9),0.172
6,SETMAR (UniProt Q53H47),-0.25
7,PDDC1 (UniProt Q8NB37),-0.174
8,HSD17B8 (UniProt Q92506),0.0946
9,PON2 (UniProt Q15165),-3.42
10,SLC4A1AP (UniProt Q9BWU0),0.341
11,CYP1B1 (UniProt Q16678),0.0132
12,TUBGCP4 (UniProt Q9UGJ1),-0.815
13,RFC2 (UniProt P35250),-0.26
14,CTSL (UniProt P07711),-0.44
15,OSBPL11 (UniProt Q9BXB4),-0.267
16,PLBD2 (UniProt Q8NHP8),0.0581
17,UBE2N (UniProt P61088),-0.293
18,AMFR (UniProt Q9UKV5),-0.845

row,Target,thermal stability z-score
1,B4GALT4 (UniProt O60513),-0.101
2,ERLEC1 (UniProt Q96DZ1),-2.07
3,RAB27A (UniProt P51159),-0.14
4,THOC7 (UniProt Q6I9Y2),0.175
5,TUBGCP5 (UniProt Q96RT8),-0.139
6,STAT3 (UniProt P40763),-0.181
7,TRMT13 (UniProt Q9NUP7),-1.34
8,SLC44A2 (UniProt Q8IWA5),-0.171
9,NFKBIB (UniProt Q15653),-0.271
10,EAF1 (UniProt Q96JC9),0.0799
11,ZNF703 (UniProt Q9H7S9),0.148
12,MKNK1 (UniProt Q9BUB5),-0.928
13,GLT8D2 (UniProt Q9H1C3),-0.83
14,PDCD6 (UniProt O75340),0.818
15,CFL1 (UniProt P23528),0.449
16,TTC9C (UniProt Q8N5M4),-0.401
17,MED4 (UniProt Q9NPJ6),0.377
18,COX15 (UniProt Q7KZN9),-0.206

# Compound: O=[As]([O-])(O)O.[K+] [potassium arsenate]
# Test: as above
# Settings: HeLa; arsenate concentration 1 mM
# Procedure: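 Cellular thermal proteome profiling in HeLa cells treated with 1 mM arsenate for 1 h (DMSO pretreatment), heated to ten temperatures (37-66.3 °C). Soluble protein was quantified by TMT mass spectrometry relative to DMSO controls; the thermal stability score was transformed to a z-score; mean of n = 3 experiments.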
row,Target,thermal stability z-score
1,SMPD2 (UniProt O60906),-0.382
2,PMM2 (UniProt O15305),1.4
3,MARVELD2 (UniProt Q8N4S9),-0.292
4,MRPL54 (UniProt Q6P161),0.025
5,ADAM15 (UniProt Q13444),-0.1
6,TMEM237 (UniProt Q96Q45),-1.23
7,ZRANB2 (UniProt O95218),-0.286
8,ZNF451 (UniProt Q9Y4E5),0.171
9,U2AF2 (UniProt P26368),-1.31
10,SNRPD2 (UniProt P62316),1.15
11,OXSM (UniProt Q9NWU1),0.51
12,PDHB (UniProt P11177),-2.38
13,ORC6 (UniProt Q9Y5N6),-1.11
14,MRPL3 (UniProt P09001),-0.132
15,SKA3 (UniProt Q8IX90),-0.18
16,PSMA3 (UniProt P25788),0.398
17,KATNA1 (UniProt O75449),-0.539
18,AIMP1 (UniProt Q12904),0.717
19,ACTN4 (UniProt O43707),0.498
20,GTF2I (UniProt P78347),-0.472
21,SERPINH1 (UniProt P50454),0.567
22,CD320 (UniProt Q9NPF0),1.01
23,C14ORF166 (UniProt Q9Y224),-0.994
24,MED14 (UniProt O60244),-0.2

row,Target,thermal stability z-score
1,PRKAR2A (UniProt P13861),0.904
2,PGM1 (UniProt P36871),-0.103
3,NOL7 (UniProt Q9UMY1),-0.698
4,PTPN3 (UniProt P26045),-0.31
5,PPIH (UniProt O43447),-0.183
6,PIGS (UniProt Q96S52),0.44
7,GPX8 (UniProt Q8TED1),0.394
8,EFEMP1 (UniProt Q12805),0.134
9,PEBP1 (UniProt P30086),-0.433
10,SPDL1 (UniProt Q96EA4),1.2
11,DNAJC11 (UniProt Q9NVH1),0.285
12,NF1 (UniProt P21359),-0.72
13,MBP (UniProt P02686),0.222
14,OSBPL2 (UniProt Q9H1P3),-0.0657
15,FAM162A (UniProt Q96A26),-0.244
16,RETSAT (UniProt Q6NUM9),-0.259
17,SETMAR (UniProt Q53H47),-0.122
18,PDDC1 (UniProt Q8NB37),-2.18
19,HSD17B8 (UniProt Q92506),-0.785
20,PON2 (UniProt Q15165),0.478
21,SLC4A1AP (UniProt Q9BWU0),-1.27
22,CYP1B1 (UniProt Q16678),-0.0983
23,TUBGCP4 (UniProt Q9UGJ1),0.141
24,RFC2 (UniProt P35250),0.381

row,Target,thermal stability z-score
1,CTSL (UniProt P07711),0.977
2,OSBPL11 (UniProt Q9BXB4),0.989
3,PLBD2 (UniProt Q8NHP8),0.464
4,UBE2N (UniProt P61088),-0.899
5,AMFR (UniProt Q9UKV5),0.444
6,B4GALT4 (UniProt O60513),0.252
7,ERLEC1 (UniProt Q96DZ1),0.593
8,RAB27A (UniProt P51159),0.579
9,THOC7 (UniProt Q6I9Y2),-0.26
10,TUBGCP5 (UniProt Q96RT8),-0.119
11,STAT3 (UniProt P40763),0.426
12,TRMT13 (UniProt Q9NUP7),0.263
13,SLC44A2 (UniProt Q8IWA5),-0.517
14,NFKBIB (UniProt Q15653),0.948
15,EAF1 (UniProt Q96JC9),-0.000349
16,ZNF703 (UniProt Q9H7S9),0.019
17,MKNK1 (UniProt Q9BUB5),-1.53
18,GLT8D2 (UniProt Q9H1C3),-0.0179
19,PDCD6 (UniProt O75340),0.623
20,CFL1 (UniProt P23528),-0.362
21,TTC9C (UniProt Q8N5M4),-0.649
22,MED4 (UniProt Q9NPJ6),-0.174
23,COX15 (UniProt Q7KZN9),0.257
